# Assay results published in patent US6541477B2, “Inhibitors of p38-a kinase” (Scios, Inc., priority 1999, dated 2003).
# Tests used:
# [1] = target: T1, p38-α kinase (Homo sapiens, UniProt Q16539); assay: biochemical; conditions: for inhibition at 15 µM: read-out: % Inhibition of p38α kinase at 15 μM; for inhibition at 0.2 µM: read-out: percent inhibition of p38α at 200 nM
# [2] = Molar refraction (MR) of the ortho substituent as a measure of its size; format: physicochemical; conditions: as described by Hansch, J Med Chem 1973
# Experimental: The molar refraction values for the ortho derivatives containing chloro, bromo and methoxy substituents were determined as a measure of the size of the substituent as described by Hansch, C. et al., J Med Chem (1973) 16:1207-1216. A linear correlation between the MR values and percent inhibition of p38α at 200 nM concentrations of the compounds was obtained. […] Thus, it appears that the ability to inhibit p38α kinase is dependent on the size of the ortho substituent. While not intending to be bound by any theory, applicants believe that the bulkier substituents rotate the aroyl moiety out of the plane of the piperidine or piperazine ring.
# [3] = target: T1, p38-α kinase; conditions: 15 μM compound
# T1 sequence (Q16539 whole entry): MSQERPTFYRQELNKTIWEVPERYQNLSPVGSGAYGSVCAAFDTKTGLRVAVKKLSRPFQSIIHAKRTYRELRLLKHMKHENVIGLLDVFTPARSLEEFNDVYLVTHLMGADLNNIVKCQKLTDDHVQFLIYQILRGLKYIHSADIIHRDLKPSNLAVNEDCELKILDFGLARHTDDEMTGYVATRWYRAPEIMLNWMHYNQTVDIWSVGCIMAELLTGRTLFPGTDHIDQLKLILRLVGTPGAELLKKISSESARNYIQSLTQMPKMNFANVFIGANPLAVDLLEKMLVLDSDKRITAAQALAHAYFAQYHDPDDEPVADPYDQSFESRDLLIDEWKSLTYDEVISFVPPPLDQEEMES
SMILES,% Inhibition of p38α kinase at 15 μM [3] [%],also measured
"COc1ccc(C(=O)N2CCC(Cc3ccccc3)CC2)cc1 [compound 2, 1-(4-methoxybenzoyl)-4-benzyl piperidine]",,IC50 [1]: 0.605 µM
"COc1cccc(C(=O)N2CCC(Cc3ccccc3)CC2)c1 [compound 5, 1-(3-methoxybenzoyl)-4-benzyl piperidine]",,IC50 [1]: 1.1 µM
"O=C(c1ccccc1Cl)N1CCC(Cc2ccccc2)CC1 [compound 7, 1-(2-chlorobenzoyl)-4-benzyl piperidine]",,MR value (molar refraction) [2]: about 6; inhibition at 15 µM [1]: 99%; inhibition at 0.2 µM [1]: 52%
"O=C(c1ccccc1Br)N1CCC(Cc2ccccc2)CC1 [compound 8, 1-(2-bromobenzoyl)-4-benzyl piperidine]",,MR value (molar refraction) [2]: approximately 9; inhibition at 15 µM [1]: 99%; inhibition at 0.2 µM [1]: 72%
"COc1ccccc1C(=O)N1CCC(Cc2ccccc2)CC1 [compound 10, 1-(2-methoxybenzoyl)-4-benzyl piperidine]",,MR value (molar refraction) [2]: about 8
"Cc1ccccc1C(=O)N1CCC(Cc2ccccc2)CC1 [compound 11, 1-(2-methylbenzoyl)-4-benzyl piperidine]",,inhibition at 15 µM [1]: 98%
O=C(c1ccccc1C(F)(F)F)N1CCC(Cc2ccccc2)CC1 [ortho-CF3],98,
O=C(c1ccc(Br)cc1)N1CCC(Cc2ccccc2)CC1 [para-Br],96,
O=C(c1ccc(C(F)(F)F)cc1)N1CCC(Cc2ccccc2)CC1 [para-CF3],66,

# Continued, in another order:
% Inhibition of p38α kinase at 15 μM [3] [%],SMILES,also measured
74,O=C(c1cccc(Br)c1)N1CCC(Cc2ccccc2)CC1 [meta-Br],
49,O=C(c1cccc(C(F)(F)F)c1)N1CCC(Cc2ccccc2)CC1 [meta-CF3],
80,O=C(c1cccc(Cl)c1)N1CCC(Cc2ccccc2)CC1 [meta-Cl],
92,O=C(c1cccc(F)c1)N1CCC(Cc2ccccc2)CC1 [meta-F],
90,Cc1cccc(C(=O)N2CCC(Cc3ccccc3)CC2)c1 [meta-methyl],
98,O=C(c1ccccc1F)N1CCC(Cc2ccccc2)CC1 [ortho-F],
85,O=C(c1ccc(Cl)cc1)N1CCC(Cc2ccccc2)CC1 [para-Cl],
94,O=C(c1ccc(F)cc1)N1CCC(Cc2ccccc2)CC1 [para-F],
97,Cc1ccc(C(=O)N2CCC(Cc3ccccc3)CC2)cc1 [para-methyl],
